Data set [1] can be described thus: Two-photon fluorescence spectra in the presence of copper(I) ions (Fd value). Type of data set: physicochemical. Particulars: at 750 nm, HEPES buffer, 2 μM copper(I) ions. The text has this:
Referring to FIG. 7, the two-photon spectrum of the compound of Chemical Formula 2-Cu^+ complex in HEPES buffer indicated an Fd value of 67 GM at 750 nm, more than 13-fold as compared to BODIPY (<5 GM 750 nm). Accordingly, it can be conjectured that a sample stained with the compound of Chemical Formula 2 gives a much brighter two-photon image than one stained with the BODIPY dye.

The nature of data set [2]: One-photon fluorescence intensity at different pH's with and without copper(I) ions. The following applies: compound 2 μM, HEPES buffer, 0 and 2 μM copper(I) ions, biologically significant pH ranges, excitation 365 nm. The text has this: Light with a wavelength of 365 nm was used for excitation. […] Thus, from FIG. 5 and FIG. 6, it can be seen that the compound of Chemical Formula 2 according to the present disclosure is capable of detecting copper(I) ions with little interference by pH or other metal ion.

The test system of data set [3] is HeLa cells. In words: Two-photon microscopy detection of copper(I) ions in cultured HeLa cells. In kind it is cell-based. The following applies: compound 2 μM, 37° C., 20 minutes. An excerpt: In order to investigate the applicability of the compound of Chemical Formula 2 in biological cells, copper(I) ions in cultured HeLa cells were detected by two-photon microscopy.

Data set [4] is described as follows: Solubility in HEPES buffer by the fluorescence method. Type of data set: physicochemical. The following applies: aqueous buffer, HEPES buffer ([HEPES]=20 mM, pH 7.0). On the procedure: FIGS. 1A and 1B show normalized absorption (FIG. 1A) and fluorescence (FIG. 1B) spectra of the compound of Chemical Formula 2 in 1,4-dioxane, DMF, ethanol and HEPES buffer ([HEPES]=20 mM, pH 7.0). Light with a wavelength of 365 nm was used for excitation. Solubility of the compound of Chemical Formula 2 in HEPES buffer ([HEPES]=20 mM, pH 7.0) was measured as 4.0 μM by the fluorescence method disclosed in the literature (H. M. Kim and B. R. Cho, Acc. Chem. Res., 2009, 42, 863; M. K. Kim, C. S. Lim, J. T. Hong, J. H. Han, H. Y. Jang, H. M. Kim and B. R. Cho, Angew. Chem., Int. Ed., 2010, 49, 364; J. H. Lee, C. S. Lim, Y. S. Tian, J. H. Han and B. R. Cho, J. Am. Chem. Soc., 2010, 132, 1216; H. M. Kim and B. R. Cho, Chem. Asian J., 2011, 6, 58), which is sufficient for staining of cells.

The nature of data set [5]: Reactivity for copper(I) ions compared to competing metal ions (relative fluorescence intensity). The following applies: compound 2 μM. The procedure:
In FIG. 5, open bars show relative fluorescence intensity of the compound of Chemical Formula 2 (2 μM) resulting from reaction with Na^+, K^+, Mg^2+ and Ca^2+ (1 mM), Hg^2+ (2 μM) and other cations (50 mM) in 20 mM HEPES buffer (pH 7.0) before adding copper(I) ions, and filled bars show relative fluorescence intensity after adding 2 μM copper(I) ions (The cations indicated as numbers below the bars are as follows: (1) Cu^+; (2) Na^+; (3) K^+; (4) Mg^2+; (5) Ca^2+; (6) Mn^2+; (7) Fe^2+, (8) Co^2+; (9) Ni^2+; (10) Cu^2+; (11) Zn^2+; (12) Hg^2+).

Data set [6] in a line: One-photon and two-photon fluorescence titration with free copper(I) ions. Particulars: for Kd: HEPES 20 mM, thiourea 100 μM, pH 7.0, 1:1 binding model. Type of data set: binding. The procedure: Absorption spectra were obtained using a Hewlett-Packard 8453 diode array spectrophotometer and fluorescence spectra were obtained using an Amico-Bowman series 2 luminescence spectrometer equipped with a 1-cm standard quartz cell. Fluorescence quantum yield was determined according to the literature using Coumarin 307 as reference compound (J. N. Demas, G. A. Crosby, J. Phys. Chem. 1971, 75, 991).
FIGS. 2A and 2B show one-photon absorption (FIG. 2A) and fluorescence (FIG. 2B) spectra for the compound of Chemical Formula 2 (2 μM) in the presence of free copper(I) ions (0-360 pM). Referring to FIGS. 2A and 2B, when copper(I) ions were added to the compound of Chemical Formula 2 in HEPES buffer, the fluorescence intensity increased gradually with the concentration of the copper(I) ions, without effect on the absorption spectrum. It may be because the metal ion forms a complex with the compound of Chemical Formula 2 and blocks photoinduced electron transfer (PeT). When the concentration of free copper(I) ion was 360 pM, the fluorescence intensity increased by about 4 times. A similar behavior was also observed for two-photon fluorescence spectra (see FIG. 3).
Dissociation constants (Kd) of the compound of Chemical Formula 2 for one-photon and two-photon processes were calculated from fluorescence titration curves (see FIG. 4) (HEPES buffer was used. [HEPES]=20 mM, [thiourea]=100 μM, pH=7.0).

The nature of data set [7]: Dissociation constant for the multiphoton process of the zinc(II) ion-selective probe. Particulars: Zn(II) ions; read-out: Dissociation constant (KdTP) for the multiphoton process. Type of data set: binding. An excerpt:
Accordingly, the compound could be used to detect Zn(II) ions in the picomolar (pM) to nanomolar (nM) range by multiphoton microscopy.

For `CCSCCSCCN(CCSCCSCC)c1ccc(NC(=O)CN(C)c2ccc3cc(C(C)=O)ccc3c2)cc1` [Chemical Formula 2], the “Fd value of the Cu+ complex” value in data set [1] is on record as 67 GM. Also, the “Dependence of reactivity on pH of reaction solutions” value in data set [2] is given as “irrelevant of the pH”. In data set [3], the “TPM image of labeled HeLa cells” value was “very bright TPM image”. The solubility – broadly, the concentration that dissolves in the medium under given conditions – in data set [4] is 4 µM. Besides, the “Interference by Hg2+” value in data set [5] (Hg2+ 2 μM, 20 mM HEPES pH 7.0) was “only exception”. In addition, the “Interference by competing metal ions Na+, K+, Mg2+, Ca2+, Mn2+, Fe2+, Co2+, Ni2+, Cu2+, Zn2+” value in data set [5] (20 mM HEPES pH 7.0, before and after adding 2 μM copper(I) ions) was “not interfered”. Besides, the Kd in data set [6] (read-out: Dissociation constant (Kd) for the copper(I) ion, one-photon process) amounted to 0.016 ± 0.002 nM; in data set [6] (read-out: Dissociation constant (Kd) for the copper(I) ion, two-photon process) it was 0.02 ± 0.003 nM. Besides, the “Increase of fluorescence intensity on adding copper(I) ions” value in data set [6] (free copper(I) ion 360 pM, compound 2 μM, HEPES buffer, one-photon) is on record as “about 4 times”.

Turning to `CC(=O)c1ccc2cc(N(C)CC(=O)Nc3ccc(NCCN(Cc4ccccn4)Cc4ccccn4)cc3)ccc2c1` [Preparation Example 2], the Kd in data set [7] was determined as 1.1 nM.

Source of the values: US20130236922A1, “COPPER(I)-ION SELECTIVE FLUORESCENT PROBE, METHOD FOR PREPARING THE SAME, METHOD FOR DIAGNOSING MALIGNANT DISEASE AND DIAGNOSIS KIT USING THE PROBE” (priority 2011, published 2013).
